In patent US6673813B2, “Methods for identifying and treating resistant tumors” (priority 1994, dated 2004):

Experiments:
HL60/ADR cells = test: Assay for reversal of Adriamycin resistance (cell growth, MTS); format: cell-based, human; details: test compound in addition to Adriamycin, samples diluted to 20 μM, 25 μl per 100 μl well, 72 hours
Source text: HL60/ADR is a continuous cell line, which was selected for Adriamycin™ resistance by culturing HL60, a human acute myeloblastic leukemia cell line, in increasing concentrations of Adriamycin™ until a highly resistant variant was attained. (McGrath, T., et al., Biochem. […] Marquardt, D. and Center, M. S., Cancer Res., 52: 3157, (1992); and Marquardt, D., et al., Cancer Res., 50: 1426, (1990)). […] Cells were harvested; washed twice with assay medium (same as culture media); counted; and diluted to 2×10^5 cells/ml in assay medium. Fifty μl of cells were aliquoted into wells of a 96 well tissue culture plate. One column of each 96 well plate served as a negative control and received assay medium containing no cells. Test compounds and references compounds were dissolved in dimethyl sulfoxide (DMSO) at a concentration of 5 mM. […] Assay standards were run in quadruplicate. 25 μl of 0.4% DMSO was added to four wells as a solvent control. […] The plates were incubated at 37° Centigrade for 72 hours in a humidified incubator with a 5% CO2 atmosphere. A CellTiter96 Aqueous Assay Kit (Promega) was used to measure cell viability and vitality via […] of a tetrazolium salt. The assay was performed in accordance with the vendors instructions, which required 2 ml of MTS reagent being mixed with 0.1 ml of PMS reagent and 20 μl of this solution was added to each well. The plates were incubated for 3 hours at 37° C. Absorbance was determined at 490 nm using a microtitre plate reader. The ability of a test compound to reverse the resistance of HL60/ADR cells to Adriamycin was determined by comparison of the absorbance of the wells containing a test compound in addition to Adriamycin with the absorbance of wells containing Adriamycin without a test compound. Controls were used to eliminate background and to ensure the results were not artifactual. The results of the assay are expressed as percent inhibition of cell growth.

Row | melting point | Compound | % Inhibition (percent inhibition of cell growth) (HL60/ADR cells) [%]
1 | 150 to 151 °C | CCCc1c(Cc2ccccc2C(=O)O)cccc1OCCCOc1cc(O)c(-c2ccc(F)cc2)cc1CC [Example 14, 2-[[2-Propyl-3-[3-[2-ethyl-5-hydroxy-4-(4-fluorophenyl)phenoxy]propoxy]phenyl]methyl]benzoic acid] | 58
2 |  | CCCc1c(OCCCOc2cc(O)c(-c3ccc(F)cc3)cc2CC)cccc1Oc1cccc(F)c1C(=O)[O-].[Na+] [Example 6, 2-Fluoro-6-[2-propyl-3-[3-[2-ethyl-5-hydroxy-4-(4-fluorophenyl)phenoxy]propoxy]phenoxy]benzoic acid disodium salt hydrate] | 35
3 | 80 to 90 °C | CCCc1c(OCCCOc2cc(O)c(-c3ccc(F)cc3)cc2CC)cccc1S(=O)(=O)c1ccccc1C(=O)O (hydrate or solvate) [Example 17, 2-[2-Propyl-3-[3-[2-ethyl-4-(4-fluorophenyl)-5-hydroxyphenoxy]propoxy]phenylsulfonyl]benzoic acid hydrate] | 
4 | 48 to 49 °C | CCc1cc(-c2ccc(F)cc2)c(O)cc1OCCCOc1cccc(Oc2ccccc2C(=O)O)c1CC(C)C [Example 10, 2-[2-(2-Methylpropyl)-3-[3-[2-ethyl-5-hydroxy-4-(4-fluorophenyl)phenoxy]propoxy]phenoxy]benzoic acid] | 49
5 | 62 to 64 °C | CCCc1c(OCCCOc2cc(O)c(-c3ccc(F)cc3)cc2CC)cccc1Oc1cc(F)ccc1C(=O)O [Example 7, 4-Fluoro-2-[2-propyl-3-[3-[2-ethyl-5-hydroxy-4-(4-fluorophenyl)phenoxy]propoxy]phenoxy]benzoic acid] | 72
6 |  | CCCc1c(OCCCOc2cc([O-])c(-c3ccccc3)cc2CC)cccc1Oc1ccccc1-c1nnn[n-]1.[Na+].[Na+] [Example 3, 5-Ethyl-4-[3-[2-propyl-3-[2-(2H-tetrazol-5-yl)phenoxy]phenoxy]propoxy][1,1′-biphenyl]-2-ol disodium salt sesquihydrate] | 55
7 | 153 to 155 °C | CCCc1c(OCCCOc2cc(O)c(-c3ccc(F)cc3)cc2CC)cccc1Sc1ccccc1C(=O)O [Example 15, 2-[2-Propyl-3-[3-[2-ethyl-4-(4-fluorophenyl)-5-hydroxyphenoxy]propoxy]thiophenoxy]benzoic acid] | 73
8 |  | CCCc1c(OCCCOc2cc([O-])c(-c3ccccc3)cc2CC)cccc1Oc1cccc(F)c1C(=O)[O-].[Na+].[Na+] [Example 4, 2-Fluoro-6-[2-propyl-3-[3-(2-ethyl-5-hydroxy-4-phenylphenoxy)propoxy]phenoxy]benzoic acid disodium salt] | 38
9 |  | CCCc1c(OCCCOc2cc(O)c(-c3ccc(F)cc3)cc2CC)cccc1S(=O)(=O)c1ccccc1C(=O)O [Example 17, 2-[2-Propyl-3-[3-[2-ethyl-4-(4-fluorophenyl)-5-hydroxyphenoxy]propoxy]phenylsulfonyl]benzoic acid hydrate] | 25
10 |  | CCCc1c(OCCCOc2cc(O)c(-c3ccccc3)cc2CC)cccc1Oc1ccccc1C(=O)[O-].[Na+] [Example 2, 2-[2-Propyl-3-[3-(2-ethyl-5-hydroxy-4-phenylphenoxy)-propoxy]phenoxy]benzoic acid sodium salt hemihydrate] | 63
11 |  | CCCc1c(OCCCOc2cc(O)c(-c3ccc(F)cc3)cc2CC)cccc1Oc1ccccc1C(=O)[O-].[Na+] [Example 5, 2-[2-Propyl-3-[3-[2-ethyl-4-(4-fluorophenyl)-5-hydroxyphenoxy]propoxy]phenoxy]benzoic acid sodium salt] | 23
12 |  | CCCc1c(OCCCOc2ccc(C(C)=O)c(OC)c2CCC)ccc2c1OC(C(=O)O)CC2 (stereo not drawn) [Example 18, 8-Propyl-7-[3-[4-acetyl-3-methoxy-2-propylphenoxy]propoxy]-3,4-dihydro-2H-1-benzopyran-2-carboxylic acid] | 67
13 |  | CCc1cc(-c2ccc(F)cc2)c(O)cc1OCCCOc1cccc(Oc2ccccc2C(=O)O)c1Cc1ccccc1 [Example 12, 2-[2-(Phenylmethyl)-3-[3-[2-ethyl-5-hydroxy-4-(4-fluorophenyl)phenoxy]propoxy]phenoxy]benzoic acid] | 62
14 |  | CCCCc1c(OCCCOc2cc(O)c(-c3ccc(F)cc3)cc2CC)cccc1Oc1ccccc1C(=O)O [Example 11, 2-[2-Butyl-3-[3-[2-ethyl-5-hydroxy-4-(4-fluorophenyl)phenoxy]propoxy]phenoxy]benzoic acid hydrate] | 47
15 |  | CCCc1c(OCCCCOc2cc(O)c(-c3ccc(F)cc3)cc2CC)cccc1Oc1ccccc1C(=O)O [Example 9, 2-[2-Propyl-3-[4-[2-ethyl-5-hydroxy-4-(4-fluorophenyl)-phenoxy]butoxy]phenoxy]benzoic acid sesquihydrate] | 61
16 |  | CCCc1c(OCCCOc2cc(O)c(-c3ccc(F)cc3)cc2CC)ccc2c1OC(C(=O)O)CC2 (stereo not drawn) [Example 1, 8-Propyl-7-[3-[4-(4-fluorophenyl)-2-ethyl-5-hydroxyphenoxy]propoxy]-3,4-dihydro-2H-1-benzopyran-2-carboxylic acid] | 54
17 | > 100 °C (dec.) | CCCc1c(OCCCOc2cc(O)c(-c3ccc(F)cc3)cc2CC)cccc1[S+]([O-])c1ccccc1C(=O)O (stereo not drawn) [Example 16, 2-[2-Propyl-3-[3-[2-ethyl-4-(4-fluorophenyl)-5-hydroxyphenoxy]propoxy]phenylsulfinyl]benzoic acid] | 35
18 | 62 to 64 °C | CCCCc1c(OCCCOc2cc(O)c(-c3ccc(F)cc3)cc2CC)cccc1Oc1ccccc1C(=O)O (hydrate or solvate) [Example 11, 2-[2-Butyl-3-[3-[2-ethyl-5-hydroxy-4-(4-fluorophenyl)phenoxy]propoxy]phenoxy]benzoic acid hydrate] | 
19 |  | CCCc1c(OCCCOc2cc(O)c(-c3ccc(F)cc3)cc2CC)cccc1C(=O)c1ccccc1C(=O)O [Example 13, 2-[2-Propyl-3-[3-[2-ethyl-5-hydroxy-4-(4-fluorophenyl)phenoxy]propoxy]benzoyl]benzoic acid] | 64

Row | Compound | melting point | % Inhibition (percent inhibition of cell growth) (HL60/ADR cells) [%]
20 | CCCc1c(OCCCCCOc2cc(O)c(-c3ccc(F)cc3)cc2CC)cccc1Oc1ccccc1C(=O)O [Example 8, 2-[2-Propyl-3-[5-[2-ethyl-5-hydroxy-4-(4-fluorophenyl)phenoxy]pentoxy]phenoxy]benzoic acid] | 65 °C (dec.) | 57
21 | CCCc1c(OCCCCOc2cc(O)c(-c3ccc(F)cc3)cc2CC)cccc1Oc1ccccc1C(=O)O (hydrate or solvate) [Example 9, 2-[2-Propyl-3-[4-[2-ethyl-5-hydroxy-4-(4-fluorophenyl)-phenoxy]butoxy]phenoxy]benzoic acid sesquihydrate] | 65 to 68 °C | 
